According to US20240083853A1, “HSD17B13 INHIBITORS AND USES THEREOF” (FL2022-001, Inc., priority 2020, published 2024):

biological target: T1, Recombinant human HSD17B13 enzyme (Homo sapiens, UniProt Q7Z5P4); experiment: HSD17b13 NAD(P)H-Glo biochemical assay; details: 50 uM estradiol, 1 mM NAD+, NAD(P)H-Glo luminescence; read-out: HSD17β13 IC50
T1 sequence (Q7Z5P4 20-300): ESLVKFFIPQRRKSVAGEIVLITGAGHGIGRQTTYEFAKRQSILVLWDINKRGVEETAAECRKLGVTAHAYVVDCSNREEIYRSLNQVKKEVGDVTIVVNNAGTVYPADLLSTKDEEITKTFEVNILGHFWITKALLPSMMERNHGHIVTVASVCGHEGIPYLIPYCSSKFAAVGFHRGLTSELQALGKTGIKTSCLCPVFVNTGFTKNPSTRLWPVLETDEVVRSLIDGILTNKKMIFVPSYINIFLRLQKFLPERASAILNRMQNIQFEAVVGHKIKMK
Method: Example B-1: HSD17b13 NAD(P)H-Glo Biochemical Assay
Recombinant human HSD17B13 enzyme. Substrate: estradiol (Sigma β-Estradiol E8875), 100 mM in DMSO. Cofactor: NAD+ Grade I free acid (Sigma 10127965001), 20 mM in H2O. Assay buffer final concentration: 20 mM Tris pH7.4 with 0.002% Tween-20 and 0.02% BSA. Assay performed in 384 well solid bottom plate (Corning 3570). Enzymatic activity detected by NAD(P)H-Glo™ Detection System (Promega G9062).
Inhibitor compounds were serially diluted in DMSO and then further diluted in assay buffer to a 10× concentration consisting of 1% DMSO.
HSD17b13 enzyme was diluted in 1× assay buffer to the desired enzyme concentration based on the specific activity of the enzyme lot. 20 uL of diluted enzyme was added to each well along with 2.5 uL of 10× inhibitor solution. Assay plate was incubated at RT for 20 minutes, and then 2.5 uL of a 10× substrate/cofactor mix was added to each well for a final concentration of 50 uM estradiol and 1 mM NAD+. Assay plate was incubated at 37° C. for 3 hours. NAD(P)H-Glo™ Detection System reagents were prepared according to manufacturer's specifications, and 25 uL was added to each well. After incubating for 1 hour at RT, luminescence was measured.

| Compound | IC50 [µM] |
| --- | --- |
| Oc1ccc(-c2ccc(-n3cnc4cc(F)c(O)cc43)cc2)cc1 [Compound 9, 5-Fluoro-1-(4′-hydroxy-[1,1′-biphenyl]-4-yl)-1H-benzo[d]imidazol-6-ol] | < 0.1 |
| CS(=O)(=O)N1CCN(c2ccc(-n3ncc4cc(F)c(O)c(Cl)c43)cc2)CC1 [Compound 25, 7-Chloro-5-fluoro-1-(4-(4-(methylsulfonyl)piperazin-1-yl)phenyl)-1H-indazol-6-ol] | 0.1 to 1 |
| CC1(C)CCN(c2ccc(N3C(=O)C(=O)c4cc(F)c(O)c(F)c43)cc2)CC1 [Compound 7.2, 1-(4-(4,4-Dimethylpiperidin-1-yl)phenyl)-5,7-difluoro-6-hydroxyindoline-2,3-dione] | 0.1 to 1 |
| C[C@H]1CN(c2ccc(-n3ncc4cc(F)c(O)c(F)c43)cc2)C[C@H](C)O1 (relative stereo) [Compound 20, 1-(4-(trans-2,6-Dimethylmorpholino)phenyl)-5,7-difluoro-1H-indazol-6-ol] | < 0.1 |
| N#Cc1ccccc1-c1ccc(-n2ncc3cc(F)c(O)cc32)cc1 [Compound 13.16, 4′-(5-Fluoro-6-hydroxy-1H-indazol-1-yl)-[1,1′-biphenyl]-2-carbonitrile] | 0.1 to 1 |
| Oc1cccc(-c2ccc(-n3ncc4c(C(F)(F)F)c(F)c(O)cc43)cc2)c1 [Compound 4, 5-Fluoro-1-(3′-hydroxy-[1,1′-biphenyl]-4-yl)-4-(trifluoromethyl)-1H-indazol-6-ol] | 0.1 to 1 |
| Cc1ccccc1-c1ccc(-n2ncc3cc(F)c(O)cc32)cc1 [Compound 13.9, 5-Fluoro-1-(2′-methyl-[1,1′-biphenyl]-4-yl)-1H-indazol-6-ol] | 0.1 to 1 |
| N#Cc1ccc(-c2ccc(-n3ncc4cc(F)c(O)c(F)c43)cc2)cn1 [Compound 14, 5-(4-(5,7-Difluoro-6-hydroxy-1H-indazol-1-yl)phenyl)picolinonitrile] | < 0.1 |
| Oc1cc2c(cnn2-c2ccc(Nc3ccccc3)cc2)cc1F [Compound 3, 5-Fluoro-1-(4-(phenylamino)phenyl)-1H-indazol-6-ol] | 0.1 to 1 |
| N#Cc1ccc(-c2ccc(-n3ncc4cc(F)c(O)cc43)cc2)cc1 [Compound 13.18, 4′-(5-Fluoro-6-hydroxy-1H-indazol-1-yl)-[1,1′-biphenyl]-4-carbonitrile] | < 0.1 |
| COc1cccc(-c2ccc(-n3ncc4cc(F)c(O)cc43)cc2)c1 [Compound 13.20, 5-Fluoro-1-(3′-methoxy-[1,1′-biphenyl]-4-yl)-1H-indazol-6-ol] | 0.1 to 1 |
| CC1(C)CCN(c2ncc(-n3ncc4cc(F)c(O)c(F)c43)cn2)CC1 [Compound 6.1, 1-(2-(4,4-Dimethylpiperidin-1-yl)pyrimidin-5-yl)-5,7-difluoro-1H-indazol-6-ol] | < 0.1 |
| CS(=O)(=O)N1CCC(Oc2ccc(-n3ncc4cc(F)c(O)c(F)c43)cc2)CC1 [Compound 31, 5,7-Difluoro-1-(4-((1-(methylsulfonyl)piperidin-4-yl)oxy)phenyl)-1H-indazol-6-ol] | 0.1 to 1 |

Now from value to molecule:

| IC50 [µM] | Compound |
| --- | --- |
| < 0.1 | CS(=O)(=O)N1CCN(c2ccc(-n3ncc4cc(F)c(O)c(F)c43)cc2Cl)CC1 [Compound 19.1, 1-(3-Chloro-4-(4-(methylsulfonyl)piperazin-1-yl)phenyl)-5,7-difluoro-1H-indazol-6-ol] |
| < 0.1 | CC1(C)CCN(c2ccc(-n3cnc4cc(F)c(O)c(F)c43)cc2)CC1 [Compound 21.5, 1-(4-(4,4-Dimethylpiperidin-1-yl)phenyl)-5,7-difluoro-1H-benzo[d]imidazol-6-ol] |
| 1 to 30 | Oc1c(F)cc2nnn(-c3cnc(N4CC5(CCOCC5)C4)nc3)c2c1F [Compound 42.1, 1-(2-(7-Oxa-2-azaspiro[3.5]nonan-2-yl)pyrimidin-5-yl)-5,7-difluoro-1H-benzo[d][1,2,3]triazol-6-ol] |
| 0.1 to 1 | O=S1(=O)CCC2(CC1)CN(c1ccc(-n3ncc4cc(F)c(O)c(F)c43)cc1)C2 [Compound 24.11, 2-(4-(5,7-Difluoro-6-hydroxy-1H-indazol-1-yl)phenyl)-7-thia-2-azaspiro[3.5]nonane 7,7-dioxide] |
| 0.1 to 1 | CS(=O)(=O)N1CCN(c2cnc(-n3ncc4cc(F)c(O)c(F)c43)cn2)CC1 [Compound 26.7, 5,7-Difluoro-1-(5-(4-(methylsulfonyl)piperazin-1-yl)pyrazin-2-yl)-1H-indazol-6-ol] |
| < 0.1 | Oc1c(F)cc2cnn(-c3ccc(-c4ccc(Cl)cc4)nc3)c2c1F [Compound 18.2, 1-(6-(4-Chlorophenyl)pyridin-3-yl)-5,7-difluoro-1H-indazol-6-ol] |
| 0.1 to 1 | CS(=O)(=O)N1CCN(c2ccc(-n3ncc4ccc(O)c(F)c43)cc2)CC1 [Compound 21.11, 7-Fluoro-1-(4-(4-(methylsulfonyl)piperazin-1-yl)phenyl)-1H-indazol-6-ol] |
| 0.1 to 1 | CC1(C)CCN(c2ccc(-n3nnc4c(F)c(F)c(O)cc43)cc2)CC1 [Compound 40.2, 1-(4-(4,4-Dimethylpiperidin-1-yl)phenyl)-4,5-difluoro-1H-benzo[d][1,2,3]triazol-6-ol] |
| 0.1 to 1 | CS(=O)(=O)C1CCN(c2ccc(-n3ncc4cc(F)c(O)c(F)c43)cc2)C1 (stereo not shown) [Compound 22.2, 5,7-Difluoro-1-(4-(3-(methylsulfonyl)pyrrolidin-1-yl)phenyl)-1H-indazol-6-ol] |
| < 0.1 | Oc1c(F)cc2cnn(-c3ccc(N4CCCCC4)cc3)c2c1F [Compound 23.2, 5,7-Difluoro-1-(4-(piperidin-1-yl)phenyl)-1H-indazol-6-ol] |
| 0.1 to 1 | CS(=O)(=O)C1CCN(c2ccc(-n3ncc4cc(F)c(O)c(F)c43)cc2)CC1 [Compound 22.3, 5,7-Difluoro-1-(4-(4-(methylsulfonyl)piperidin-1-yl)phenyl)-1H-indazol-6-ol] |
| < 0.1 | Oc1c(F)cc2cnn(-c3ccc(-c4ccc(Cl)cc4)cn3)c2c1F [Compound 18.3, 1-(5-(4-Chlorophenyl)pyridin-2-yl)-5,7-difluoro-1H-indazol-6-ol] |
| 0.1 to 1 | Oc1c(F)cc2nnn(-c3ccc(N4CCO[C@H](c5ccccc5)C4)cc3)c2c1F [Compound 26.27, (R)-5,7-Difluoro-1-(4-(2-phenylmorpholino)phenyl)-1H-benzo[d][1,2,3]triazol-6-ol] |
| < 0.1 | CC1(C#N)CN(c2ccc(-n3ncc4cc(F)c(O)c(F)c43)cc2)C1 [Compound 23.27, 1-(4-(5,7-Difluoro-6-hydroxy-1H-indazol-1-yl)phenyl)-3-methylazetidine-3-carbonitrile] |
| < 0.1 | CCC1(C)CN(c2ccc(-n3ncc4cc(F)c(O)c(F)c43)cc2)C1 [Compound 24.4, 1-(4-(3-Ethyl-3-methylazetidin-1-yl)phenyl)-5,7-difluoro-1H-indazol-6-ol] |
| < 0.1 | COC1CCN(c2ccc(-n3ncc4cc(F)c(O)c(F)c43)cc2)CC1 [Compound 22.4, 5,7-Difluoro-1-(4-(4-methoxypiperidin-1-yl)phenyl)-1H-indazol-6-ol] |
| < 0.1 | Cc1c(O)c(F)cc2cnn(-c3ccc(N4CCC(C)(C)CC4)cc3)c12 [Compound 25.6, 1-(4-(4,4-Dimethylpiperidin-1-yl)phenyl)-5-fluoro-7-methyl-1H-indazol-6-ol] |
| < 0.1 | CC1(C)CCN(c2ccc(-n3nnc4cc(F)c(O)c(F)c43)cn2)CC1 [Compound 26.11, 1-(6-(4,4-Dimethylpiperidin-1-yl)pyridin-3-yl)-5,7-difluoro-1H-benzo[d][1,2,3]triazol-6-ol] |
| 0.1 to 1 | Oc1c(F)cc2nnn(-c3cnc(N4CC5(CCOCC5)C4)cn3)c2c1F [Compound 26.18, 1-(5-(7-Oxa-2-azaspiro[3.5]nonan-2-yl)pyrazin-2-yl)-5,7-difluoro-1H-benzo[d][1,2,3]triazol-6-ol] |
| 0.1 to 1 | CN1CCN(c2ccc(-n3ncc4cc(F)c(O)c(F)c43)cc2)CC1 [Compound 24.1, 5,7-Difluoro-1-(4-(4-methylpiperazin-1-yl)phenyl)-1H-indazol-6-ol] |
| 0.1 to 1 | CC1(C)COCCN1c1ccc(-n2ncc3cc(F)c(O)c(F)c32)cc1 [Compound 20.6, 1-(4-(3,3-Dimethylmorpholino)phenyl)-5,7-difluoro-1H-indazol-6-ol] |

same assay, conditions: 3 h; at 10 uM compound; read-out: HSD17β13 % at 10 uM

| inhibition at 10 µM [%] | Compound |
| --- | --- |
| 35 | Cc1nc2cc(F)c(O)c(F)c2n1-c1ccc(N2CCC(C)(C)CC2)cc1 [Compound 21.8, 1-(4-(4,4-Dimethylpiperidin-1-yl)phenyl)-5,7-difluoro-2-methyl-1H-benzo[d]imidazol-6-ol] |
| 35 | CS(=O)(=O)N1CCN(c2ccc(-n3ncc4cc(F)c(O)nc43)cc2)CC1 [Compound 25.3, 5-Fluoro-1-(4-(4-(methylsulfonyl)piperazin-1-yl)phenyl)-1H-pyrazolo[3,4-b]pyridin-6-ol] |

same assay, conditions: 3 h; at 100 uM compound; read-out: HSD17β13 % at 100 uM

| inhibition at 100 µM [%] | Compound |
| --- | --- |
| 40 | CC(=O)Nc1ccc(-c2ccc(-n3ncc4cc(F)c(O)cc43)cc2)cc1 [Compound 13.32, N-(4′-(5-Fluoro-6-hydroxy-1H-indazol-1-yl)-[1,1′-biphenyl]-4-yl)acetamide] |
